Values after ≈ are worked out from the molar mass of the structure shown.
Legend:
[1] = Inhibition of urease (unknown origin)
[2] = Plasma protein binding in human; type: ADME, cell-free; settings: read-out: PPB (converted)
Helicobacter pylori [3] = test: Antibacterial activity against Helicobacter pylori SS1 assessed as reduction in bacterial growth by broth microdilution method; type: functional
Helicobacter pylori [4] = test: Antibacterial activity against Helicobacter pylori P12 assessed as reduction in bacterial growth by broth microdilution method; type: functional
Helicobacter pylori [5] = test: Antimicrobial activity against Helicobacter pylori assessed as inhibition of bacterial growth incubated for 72 hrs by broth dilution method; type: functional
Helicobacter pylori [6] = test: Antimicrobial activity against Helicobacter pylori KA05 assessed as inhibition of bacterial growth by broth dilution method; type: functional
[7] = Inhibition of Helicobacter pylori IMPDH
Helicobacter pylori [8] = test: Antibacterial activity against Helicobacter pylori; type: functional
Helicobacter pylori [9] = test: Antibacterial activity against Helicobacter pylori assessed as bacterial growth inhibition; type: functional
[10] = Antioxidant activity assessed as radical scavenging activity; type: functional
[11] = molecular target: T1, Aminodeoxyfutalosine nucleosidase (Helicobacter pylori (strain J99 / ATCC 700824) (Campylobacter pylori J99), UniProt Q9ZMY2); test: Inhibition of Helicobacter pylori MTAN assessed as dissociation constant
T1 sequence (Q9ZMY2 whole entry): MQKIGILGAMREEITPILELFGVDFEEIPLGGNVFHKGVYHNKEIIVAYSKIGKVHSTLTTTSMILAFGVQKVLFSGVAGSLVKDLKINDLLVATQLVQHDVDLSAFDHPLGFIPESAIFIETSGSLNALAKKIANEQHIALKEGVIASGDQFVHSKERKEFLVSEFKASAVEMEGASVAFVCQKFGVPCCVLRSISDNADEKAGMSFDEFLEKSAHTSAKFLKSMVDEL

Helicobacter pylori [12] = test: Antimicrobial activity against Helicobacter pylori EP1757 assessed as inhibition of bacterial growth; type: functional
Helicobacter pylori [13] = test: Antimicrobial activity against Helicobacter pylori EP1836 assessed as inhibition of bacterial growth; type: functional
Helicobacter pylori [14] = test: Antibacterial activity against metronidazole-resistant Helicobacter pylori incubated for 72 hrs; type: functional
[15] = Inhibition of Helicobacter pylori IMPDH incubated for 10 mins in presence of […] by multilabel reader analysis
[16] = molecular target: Inosine-5'-monophosphate dehydrogenase 2 (Homo sapiens) (UniProt P12268); test: Inhibition of human IMPDH at 10 uM incubated for 10 mins by multilabel reader analysis relative to control
Inosine-5'-monophosphate dehydrogenase 2 (Homo sapiens), sequence (P12268 2-514 limits assumed): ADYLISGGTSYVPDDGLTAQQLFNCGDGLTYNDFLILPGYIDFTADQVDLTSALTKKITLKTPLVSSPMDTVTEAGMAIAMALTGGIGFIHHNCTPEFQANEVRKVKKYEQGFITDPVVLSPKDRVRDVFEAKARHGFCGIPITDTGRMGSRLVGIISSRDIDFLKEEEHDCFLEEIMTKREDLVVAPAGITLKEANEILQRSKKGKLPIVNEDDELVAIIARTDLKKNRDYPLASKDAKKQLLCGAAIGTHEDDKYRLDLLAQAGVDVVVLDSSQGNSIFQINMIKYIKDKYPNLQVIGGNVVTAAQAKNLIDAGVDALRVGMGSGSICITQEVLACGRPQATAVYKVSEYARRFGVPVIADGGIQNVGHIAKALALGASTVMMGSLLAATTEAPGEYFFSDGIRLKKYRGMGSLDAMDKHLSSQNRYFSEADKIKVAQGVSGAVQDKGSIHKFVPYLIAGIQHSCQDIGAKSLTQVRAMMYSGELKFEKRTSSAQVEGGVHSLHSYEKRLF

[17] = Inhibition of Helicobacter pylori IMPDH incubated for 10 mins by multilabel reader analysis
Helicobacter pylori [18] = test: Inhibition of Helicobacter pylori IMPDH at 10 uM incubated for 10 mins in presence of […] by multilabel reader analysis relative to control
Helicobacter pylori [19] = test: Antibacterial activity against metronidazole-resistant Helicobacter pylori ATCC 43504; type: functional, organism-based
Helicobacter pylori [20] = test: Antibacterial activity against Helicobacter pylori ATCC 43504 assessed as bacterial growth inhibition; type: functional
[21] = Inhibition of Helicobacter pylori GatCAB assessed as inhibition constant
Helicobacter pylori [22] = test: Antibacterial activity against metronidazole-resistant Helicobacter pylori assessed as inhibition zone at 50 ug per disk by paper disk diffusion assay; type: functional; settings: read-out: IZ
Helicobacter pylori [23] = test: Antibacterial activity against metronidazole-resistant Helicobacter pylori assessed as diameter of zone inhibition at 16 to 32 ug per disk incubated for 2 to 10 days by disk diffusion assay; type: functional; settings: dose 16-32 µg; time 2-10 day
Helicobacter pylori [24] = test: Antibacterial activity against clinical isolate Helicobacter pylori assessed as bacterial growth inhibition incubated for 72 hrs by agar dilution method; type: functional
Helicobacter pylori [25] = test: Antibacterial activity against Helicobacter pylori assessed as diameter of zone inhibition at 25 to 100 ug per disk incubated for […] by disk diffusion assay; type: functional; settings: dose 25-100 µg
Glutamate racemase = molecular target: T2, Glutamate racemase (Helicobacter pylori J99, UniProt Q9ZLT0); test: Inhibition of Helicobacter pylori Glutamate racemase
T2 sequence (Q9ZLT0 whole entry): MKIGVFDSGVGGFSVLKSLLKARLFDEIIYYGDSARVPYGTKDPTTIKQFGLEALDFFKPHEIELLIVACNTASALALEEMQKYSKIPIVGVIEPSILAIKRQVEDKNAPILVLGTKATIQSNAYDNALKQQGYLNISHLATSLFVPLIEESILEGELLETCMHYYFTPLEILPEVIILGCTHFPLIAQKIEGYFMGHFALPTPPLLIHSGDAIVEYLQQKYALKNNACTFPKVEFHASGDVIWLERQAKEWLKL

Helicobacter pylori [26] = test: Antibacterial activity against wild type Helicobacter pylori; type: functional
Helicobacter pylori [27] = test: Antibacterial activity against Helicobacter pylori assessed as diameter of zone inhibition at 12.5 to 100 ug per disk incubated for […] by disk diffusion assay; type: functional; settings: dose 12.5-100 µg
Helicobacter pylori [28] = test: Antibacterial activity against metronidazole-resistant Helicobacter pylori assessed as diameter of zone inhibition at 12.5 to 100 ug per disk by paper disk diffusion assay; type: functional; settings: dose 12.5-100 µg

## O=C(CC(O)c1cc(Cl)ccc1OCc1ccccc1)NO (centres undefined)
[1]
  IC50: 150 nM
[2]
  fraction unbound: 0.56

## CCOc1ccc2nc(S(N)(=O)=O)sc2c1 [ETHOXZOLAMIDE]
Helicobacter pylori [3]
  MIC: 200 µM (≈ 51.7 µg/mL)
Helicobacter pylori [4]
  MIC: 200 µM (≈ 51.7 µg/mL)

## CC1=C(/C=N/N(C)C(N)=S)C(C)(C)CC=C1
Helicobacter pylori [5]
  MIC90: 4 µM (≈ 0.949 µg/mL)

## COc1cc2ccc(=O)oc2cc1O[C@@H]1O[C@H](CO)[C@@H](O)[C@H](O)[C@H]1O [SCOPOLIN]
Helicobacter pylori [6]
  MIC: 50 µg/mL (≈ 141 µM)

## O=C(Cn1cc(/N=N/c2cccnc2)c2ccccc21)Nc1ccc(Cl)cc1
[7]
  IC50: 800 nM

## CC1=C(/C=N/NC(N)=S)C(C)(C)CC=C1
Helicobacter pylori [5]
  MIC90: 4 µM (≈ 0.893 µg/mL)

## CC1=C(C=O)C(C)(C)CC=C1
Helicobacter pylori [5]
  MIC50: 2 µg/mL (≈ 13.3 µM)

## COC1=CC(=O)c2c(cc(C)c(C(C)=O)c2O)C1=O
Helicobacter pylori [8]
  MIC50: 0.3 µM (≈ 0.0781 µg/mL)
  MIC90: 0.39 µM (≈ 0.101 µg/mL)

## COC1=CC(=O)c2c(c(OC)c3cc(C)oc(=O)c3c2O)C1=O
Helicobacter pylori [9]
  MIC: 64 µg/mL (≈ 202 µM)
[10]
  ED50: 1.58 µg/mL (≈ 5 µM)

## CCCCSC[C@H]1CN(Cc2c[nH]c3c(N)ncnc23)C[C@@H]1O
[11]
  Kd: < 50 nM

## NC(=O)Cc1csc(SC2=C(C(=O)O)N3C(=O)[C@@H](NC(=O)Cc4ccccc4)[C@H]3SC2)n1
Helicobacter pylori [12]
  MIC: 0.00078 µg/mL (≈ 0.00159 µM)
Helicobacter pylori [13]
  MIC: 0.00313 µg/mL (≈ 0.00638 µM)

## O=C1N/C(=N\c2cccs2)S/C1=C\c1ccc([N+](=O)[O-])o1
Helicobacter pylori [9]
  MIC: < 1.5 µg/mL

## O=c1oc2ccccc2cc1-c1csc(N/N=C/c2ccco2)n1
Helicobacter pylori [14]
  MIC: ≥ 16 µg/mL

## O=C(COc1ccc2ccccc2c1)Nc1ccc2c(c1)COC2=O
[15]
  IC50: 2210 nM

## COc1ccc(-c2oc3ccccc3c(=O)c2OCC(=O)Nc2ccc3c(c2)COC3=O)cc1
[16]
  inhibition: 57%
[17]
  IC50: 1880 nM
Helicobacter pylori [18]
  inhibition: > 70%
[15]
  IC50: 2210 nM

## Clc1ccc(Cn2cc(COc3cccc4ccccc34)nn2)cc1Cl
[17]
  IC50: 1270 nM

## CN(CCO)CC(O)COc1cccc2c(=O)c3ccccc3oc12.Cl (centres undefined)
Helicobacter pylori [19]
  IC50: 5 µg/mL

## Cc1ncc([N+](=O)[O-])n1CCOc1cc(O)c2c(=O)c(-c3ccc(O)cc3)coc2c1
Helicobacter pylori [20]
  MIC: 0.39 µg/mL (≈ 0.921 µM)

## CN(C)c1ncnc2c1ncn2[C@@H]1O[C@H](CO)[C@@H](NC(=O)[C@@H](N)CCS(C)(=O)=O)[C@H]1O
[17]
  IC50: 1270 nM
[21]
  Ki: 4000 nM

## NNc1nc(-c2cc3ccccc3oc2=O)cs1
Helicobacter pylori [14]
  MIC: ≥ 16 µg/mL

## C=C(C)CCC(CC1(CC=C(C)C)C(=O)C(C(CCC)CC(=O)O)=C2O[C@H](C)[C@@H](C)C(=O)C2=C1O)C(=C)C (some centres undefined)
Helicobacter pylori [8]
  MIC: 50 µg/mL (≈ 94.9 µM)

## CC[C@H]1OC(=O)[C@H](C)[C@@H](O[C@H]2C[C@@](C)(OC)[C@@H](O)[C@H](C)O2)[C@H](C)[C@@H](O[C@@H]2O[C@H](C)C[C@H](N(C)C)[C@H]2O)[C@](C)(OC)C[C@@H](C)C(=O)[C@H](C)[C@@H](O)[C@]1(C)O [CLARITHROMYCIN]
Helicobacter pylori [8]
  MIC: 0.78 µg/mL (≈ 1.04 µM)

## O=C(CSc1nnc(-c2ccc([N+](=O)[O-])o2)s1)c1ccccc1Cl
Helicobacter pylori [22]
  zone of inhibition at 50 µg/disc: ≥ 20 mm

## CCCCCCCOC(=O)/C=C/c1ccc(O)c(O)c1
Helicobacter pylori [8]
  MIC: 250 µg/mL (≈ 898 µM)

## COc1cc2ccc(=O)oc2cc1O [SCOPOLETIN]
Helicobacter pylori [6]
  MIC: 50 µg/mL (≈ 260 µM)

## CCCCCCSC[C@H]1CN(Cc2c[nH]c3c(N)ncnc23)C[C@@H]1O
[11]
  Kd: < 50 nM

## CCCSC[C@H]1CN(Cc2c[nH]c3c(N)ncnc23)C[C@@H]1O
[11]
  Kd: < 50 nM

## CO/N=C(/CN1CCN(c2cc3c(cc2F)c(=O)c(C(=O)O)cn3C2CC2)CC1)c1ccccc1Cl
Helicobacter pylori [23]
  diameter of the inhibition zone (DIZ): 6 mm

## Cn1cnc([N+](=O)[O-])c1S(=O)(=O)c1ccccc1
Helicobacter pylori [24]
  MIC: 32 µg/mL (≈ 120 µM)

## Cc1ncc([N+](=O)[O-])n1CCO [METRONIDAZOLE]
Helicobacter pylori [24]
  MIC: 2 µg/mL (≈ 11.7 µM)
Helicobacter pylori [9]
  MIC: > 254 µg/mL
[10]
  ED50: 5.4 µg/mL (≈ 31.6 µM)
Helicobacter pylori [25]
  diameter of the inhibition zone (DIZ): 10 mm

## CCCCOC(=O)/C=C/c1ccc(O)c(O)c1 [BUTYL CAFFEATE]
Helicobacter pylori [8]
  MIC: 250 µg/mL (≈ 1060 µM)

## CC1=C(/C=N/Nc2nc(-c3cccc([N+](=O)[O-])c3)cs2)C(C)(C)CC=C1
Helicobacter pylori [5]
  MIC50: 2 µg/mL (≈ 5.43 µM)

## C=C(C)C(CC=C(C)C)CC1(CC=C(C)C)C(=O)C(C(CCC)CC(=O)O)=C2O[C@H](C)[C@@H](C)C(=O)C2=C1O (some centres undefined)
Helicobacter pylori [8]
  MIC: 12.5 µg/mL (≈ 23.7 µM)

## Cn1c([N+](=O)[O-])cnc1/C=C1\S/C(=N/c2cccs2)NC1=O
Helicobacter pylori [9]
  MIC: < 1.5 µg/mL

## Cn1cc(C#N)cc1-c1c2c(=O)n(C)c(=O)n(CC3CC3)c2nn1Cc1ccnc2ccc(Cl)cc12
Glutamate racemase
  IC50: 26 nM
Helicobacter pylori [26]
  MIC: 0.5 µg/mL (≈ 1 µM)

## CCCNC(=O)CSc1nnc(-c2ccc([N+](=O)[O-])o2)s1
Helicobacter pylori [25]
  diameter of the inhibition zone (DIZ): 10 mm
Helicobacter pylori [27]
  diameter of the inhibition zone (DIZ): 33 mm

## COc1ccc(C[C@H](N)C(=O)N[C@H]2[C@@H](O)[C@H](n3cnc4c(N(C)C)ncnc43)O[C@@H]2CO)cc1 [PUROMYCIN]
[21]
  Ki: 4000 nM

## CN(O)C(=O)CC(O)c1cccc(Cl)c1 (centres undefined)
[1]
  IC50: 1100 nM

## O=C(Cn1cc(/N=N/c2cccnc2)c2ccccc21)Nc1ccc2ccccc2c1
[7]
  IC50: 800 nM

## CC(Sc1nnc(-c2ncc([N+](=O)[O-])n2C)s1)c1ccccc1 (centres undefined)
Helicobacter pylori [28]
  diameter of the inhibition zone (DIZ): >50 mm
